The results in this text go back to US20090069551A1, “Flavorant Compounds” (priority 2006, published 2009).

The structures appear in SMILES notation.

Experiment [1] can be described thus: Sensorial taste evaluation: taste thresholds by modified duo test with a sensory panel. It counts as in vivo. The following applies: for taste threshold: modified duo test, sample versus tap water; for threshold concentration, times lower than the threshold concentration of catechin: relative to catechin. An excerpt: Sensorial taste evaluation of (E)-6-(3-hydroxyphenyl)-(4-O-β-D-glucopyranoside)hex-5-en-2-one and (3E,5E)-6-[3-Hydroxy-4-O-β-D-glucopyranoside-phenyl]-hexa-3 ,5-dien-2-one
For evaluation of taste thresholds of the isolated substances, a modified duo test is used. […] As astringent substances can remain longer on the tongue or possibly can be fortified by addition of tap water, the assessed dilutions (tap water and assay) were given on two different regions of the tongue to compare the taste impressions. The panelists had to determine the dilution at which a difference between sample and tap water could be found.

The nature of experiment [2]: Isoastringency: isointensity of astringent perception with a 700 μM aqueous catechin solution. It counts as in vivo. Particulars: versus 700 μM aqueous catechin solution (pH 4.5).

As to `CC(=O)CC/C=C/c1ccc(O[C@@H]2OC(CO)[C@@H](O)C(O)C2O)c(O)c1` (stereo partly drawn) [(E)-6-(3-hydroxyphenyl)-(4-O-β-D-glucopyranoside)hex-5-en-2-one], in experiment [1], the taste threshold is 4.3 µmol/L and the “threshold concentration, times lower than the threshold concentration of catechin” value was “about 100 times”. In experiment [2], the “isoastringency: concentration needed to reach isointensity of astringent perception with catechin solution” value was 120 µmol/L.

As for `CC(=O)/C=C/C=C/c1ccc(O[C@@H]2OC(CO)[C@@H](O)C(O)C2O)c(O)c1` (stereo partly drawn) [(3E,5E)-6-[3-Hydroxy-4-O-β-D-glucopyranoside-phenyl]-hexa-3,5-dien-2-one], in experiment [1], the taste threshold came out at 4.0 µmol/L and the “threshold concentration, times lower than the threshold concentration of catechin” value is on record as “about 100 times”. In addition, the “isoastringency: concentration needed to reach isointensity of astringent perception with catechin solution” value in experiment [2] came out at 200 µmol/L.
